Earlier results, collected in patent US20240207239A1, “COMPOSITION AND PREPARATION METHOD THEREFOR” (priority 2021, published 2024).

Settings: range of pH 1-12

## CNC(=O)c1ccc(N2C(=S)N(c3cnc(C#N)c(C(F)(F)F)c3)C(=O)C23CCC3)cc1F [Apalutamide, 4-[7-(6-cyano-5-trifluoromethylpyridine-3-yl)-8-oxo-6-thioxo-5,7-diazaspiro[3. 4]octan-5-yl]-2-fluoro-N-methylbenzamide]
  solubility in aqueous medium: almost insoluble
